# Where two headings read alike, the source gives them in different places.
# Key:
# Type in all cases: in vivo
# Spodoptera litura [1] = assay: Insecticidal effect for Spodoptera litura by immersion treatment of host crop root (Test Example 4); conditions: 25 ppm, soybean root immersion 5 days, second-instar larvae of Spodoptera litura, fifth day after; for pest or weed control at 25 ppm: 120 h, read-out: rate of dead pests (%)
# Procedure: Insecticidal Effect for Spodoptera litura by Immersion Treatment of Host Crop Root Roots of primary leaves developing stage soybean was washed with tap water to remove soil, and then immersed in a pesticidal solution which was prepared by dissolving 5 mg of test compound (represented by the compound Nos. in the above Examples) in 0.5 ml of acetone containing Tween 20 ([…]) with ion-exchange water, and which was filled in a light-shielded Erlenmeyer flask (100 ml). On the fifth day after immersion of root, two primary leaves were cut off, and the leaves were put into an ice cream cup (180 ml). Ten second-instar larvae of Spodoptera litura were set free therein, and the cup was left in a temperature-controlled breeding room (25° C.). On the fifth day after, the number of surviving Spodoptera litura was examined. The rate of dead pests was calculated by the following formula. rate of dead pests (%)=(number of dead pests/number of test pests)×100
# Plutella xylostella [2] = assay: Insecticidal effect for Plutella xylostella by immersion treatment of host crop root (Test Example 3); conditions: for pest or weed control at 25 ppm: Plutella xylostella, 120 h, read-out: rate of dead pests (%)
# Procedure: Insecticidal Effect for Plutella xylostella by Immersion Treatment of Host Crop Root
# Roots of 4-leave stage cabbage was washed with tap water to remove soil, and then immersed in a pesticidal solution which was prepared by dissolving 5 mg of test compound (represented by the compound Nos. in the above Examples) in 0.5 ml of acetone containing Tween 20 (trade name) and then diluting it to the prescribed concentration (25 ppm) with ion-exchange water, and which was filled in a light-shielded Erlenmeyer flask (100 ml). On the fifth day after immersion of root, the root was cut off, and the stem and leaves were put into an ice cream cup (180 ml). Ten second-instar larvae of Plutella xylostella were set free therein, and the cup was left in a temperature-controlled breeding room (24° C.). On the fifth day after, the number of surviving Plutella xylostella was examined. The rate of dead pests was calculated by the following formula. rate of dead pests (%)=(number of dead pests/number of test pests)×100
# Spodoptera litura [3] = assay: Insecticidal effect for Spodoptera litura by spraying treatment to host crop (Test Example 2); conditions: 100 ppm, sprayed on soybean, third-instar larvae of Spodoptera litura, fifth day after; for pest or weed control at 100 ppm: 120 h, read-out: rate of dead pests (%)
# Method in brief: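 Soybean plants with fully developed primary leaves sprayed to runoff with 100 ppm compound (acetone/Tween 20, sticker water). Dried leaves given to ten third-instar larvae at 25° C.; survivors counted on day 5, mortality as dead/tested × 100.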
# Plutella xylostella [4] = assay: Insecticidal effect for Plutella xylostella by immersion treatment of host crop (Test Example 1); conditions: cabbage leaf dipped, second-instar larvae of Plutella xylostella, fifth day after; for rate of dead pests (%): 100 ppm; for pest or weed control at 100 ppm: foliar, 120 h, read-out: rate of dead pests (%)
# Procedure: Insecticidal Effect for Plutella xylostella by Immersion Treatment of Host Crop One true leaf of 7 to 8-leave stage cabbage was cut off and dipped in a pesticidal solution for a few seconds, which was prepared by dissolving 5 mg of test compound (represented by the compound Nos. in the above Examples) in 0.5 ml of acetone containing Tween 20 (trade name) and then diluting it to the prescribed concentration (100 ppm) with Dain (trade name, sticker) water diluted 5000-fold. After drying the pesticidal solution, the leaf was put into an ice cream cup (180 ml), and ten second-instar larvae of Plutella xylostella were set free therein. The cup was left in a temperature-controlled breeding room (24° C.). On the fifth day after, the number of surviving Plutella xylostella was examined. The rate of dead pests was calculated by the following formula. rate of dead pests (%)=(number of dead pests/number of test pests)×100
# [5] = 25 ppm, cabbage root immersed 5 days, ten second-instar larvae on stem and leaves, counted on the fifth day, 24° C.
structure (smiles),measurement,setting,value
O=C(c1c(F)cccc1F)N1COCN(c2ccc([S+]([O-])C(F)(F)C(F)Cl)cc2Cl)C1=O (stereo not drawn) [I-14],rate of dead pests (%),Spodoptera litura [1],100%
same,rate of dead pests (%),Plutella xylostella [2]; [5],100%
same,rate of dead pests (%),Spodoptera litura [3],100%
O=C(c1c(F)cccc1F)N1COCN(c2ccc([S+]([O-])C(F)(F)C(F)F)cc2Cl)C1=O (stereo not drawn) [I-17],rate of dead pests (%),Plutella xylostella [4],100%
same,rate of dead pests (%),Spodoptera litura [1],100%
same,rate of dead pests (%),Spodoptera litura [3],100%
O=C(c1c(F)cccc1F)N1COCN(c2ccc([S+]([O-])C(F)(F)C(F)F)cc2F)C1=O (stereo not drawn) [I-23],rate of dead pests (%),Spodoptera litura [1],100%
same,rate of dead pests (%),Plutella xylostella [2]; [5],95%
same,rate of dead pests (%),Spodoptera litura [3],100%
"O=C(c1c(F)cccc1F)N1COCN(c2ccc(S(=O)(=O)C(F)F)cc2F)C1=O [I-43, 3-(2,6-difluorobenzoyl)-5-[4-(difluoromethylsulfonyl)-2-fluorophenyl]tetrahydro-4H-1,3,5-oxadiazin-4-one]",pest or weed control at 100 ppm,Plutella xylostella [4],100%
same,pest or weed control at 25 ppm,Spodoptera litura [1],100%
same,pest or weed control at 100 ppm,Spodoptera litura [3],100%
Cc1cc([S+]([O-])C(F)(F)F)ccc1N1COCN(C(=O)c2c(F)cccc2F)C1=O (stereo not drawn) [I-69],rate of dead pests (%),Plutella xylostella [2]; [5],100%
same,rate of dead pests (%),Spodoptera litura [3],100%
Cc1cc(N2COCN(C(=O)c3c(F)cccc3F)C2=O)ccc1SC(F)(F)F [I-71],rate of dead pests (%),Spodoptera litura [1],90%
same,rate of dead pests (%),Plutella xylostella [2]; [5],95%
same,rate of dead pests (%),Spodoptera litura [3],100%
Cc1cc(N2COCN(C(=O)c3c(F)cccc3F)C2=O)ccc1[S+]([O-])C(F)(F)F (stereo not drawn) [I-72],rate of dead pests (%),Plutella xylostella [2]; [5],100%
same,rate of dead pests (%),Spodoptera litura [3],100%
O=C(c1c(F)cccc1F)N1COCN(c2ccc([S+]([O-])C(F)(F)F)cc2Cl)C1=O (stereo not drawn) [I-75],rate of dead pests (%),Spodoptera litura [1],100%
same,rate of dead pests (%),Plutella xylostella [2]; [5],95%
same,rate of dead pests (%),Spodoptera litura [3],100%
O=C(c1c(F)cccc1F)N1COCN(c2ccc([S+]([O-])C(F)(F)F)c(Cl)c2)C1=O (stereo not drawn) [I-78],rate of dead pests (%),Spodoptera litura [1],100%
same,rate of dead pests (%),Plutella xylostella [2]; [5],90%
same,rate of dead pests (%),Spodoptera litura [3],100%
Cc1c(N2COCN(C(=O)c3c(F)cccc3F)C2=O)ccc([S+]([O-])C(F)(F)F)c1C (stereo not drawn) [I-84],rate of dead pests (%),Plutella xylostella [2]; [5],100%
same,rate of dead pests (%),Spodoptera litura [3],100%
O=C(c1c(F)cccc1F)N1COCN(c2c(F)cc([S+]([O-])C(F)(F)F)cc2Cl)C1=O (stereo not drawn) [I-102],rate of dead pests (%),Plutella xylostella [2]; [5],100%
same,rate of dead pests (%),Spodoptera litura [3],100%
O=C(c1c(F)cccc1F)N1COCN(c2c(F)cc([S+]([O-])C(F)(F)F)cc2F)C1=O (stereo not drawn) [I-105],rate of dead pests (%),Spodoptera litura [1],100%
same,rate of dead pests (%),Plutella xylostella [2]; [5],100%
same,rate of dead pests (%),Spodoptera litura [3],100%
O=C(c1c(F)cccc1F)N1COCN(c2cc(F)c([S+]([O-])C(F)(F)F)cc2F)C1=O (stereo not drawn) [I-111],rate of dead pests (%),Plutella xylostella [2]; [5],100%
same,rate of dead pests (%),Spodoptera litura [3],100%
Cc1c(N2COCN(C(=O)c3c(F)cccc3F)C2=O)ccc([S+]([O-])C(F)(F)F)c1Cl (stereo not drawn) [I-123],rate of dead pests (%),Plutella xylostella [2]; [5],100%
same,rate of dead pests (%),Spodoptera litura [3],100%
Cc1cc([S+]([O-])C(F)(F)F)c(F)cc1N1COCN(C(=O)c2c(F)cccc2F)C1=O (stereo not drawn) [I-126],rate of dead pests (%),Plutella xylostella [2]; [5],100%
same,rate of dead pests (%),Spodoptera litura [3],100%
"O=C(c1c(F)cccc1F)N1COCN(c2ccc([S+]([O-])C(F)(F)C(F)(F)F)cc2F)C1=O (stereo not drawn) [I-129, 3-(2,6-difluorobenzoyl)-5-[2-fluoro-4-(1,1,2,2,2-pentafluoroethylsulfinyl)phenyl]tetrahydro-4H-1,3,5-oxadiazin-4-one]",pest or weed control at 25 ppm,Spodoptera litura [1],100%
same,pest or weed control at 25 ppm,Plutella xylostella [2]; [5],100%
same,pest or weed control at 100 ppm,Spodoptera litura [3],100%
"O=C(c1c(F)cccc1F)N1COCN(c2ccc([S+]([O-])C(F)(F)C(F)(F)C(F)(F)F)cc2F)C1=O (stereo not drawn) [I-144, 3-(2,6-difluorobenzoyl)-5-[2-fluoro-4-(1,1,2,2,3,3,3-heptafluoro-1-propylsulfinyl)phenyl]tetrahydro-4H-1,3,5-oxadiazin-4-one]",pest or weed control at 25 ppm,Plutella xylostella [2]; in Brassica oleracea,95%
C[S+]([O-])c1ccc(N2COCN(C(=O)c3c(F)cccc3Cl)C2=O)c(F)c1 (stereo not drawn) [I-206],rate of dead pests (%),Plutella xylostella [4],100%
same,rate of dead pests (%),Spodoptera litura [1],100%
O=C(c1c(F)cccc1Cl)N1COCN(c2ccc(SC(F)F)cc2F)C1=O [I-218],rate of dead pests (%),Plutella xylostella [4],100%
same,rate of dead pests (%),Spodoptera litura [1],100%
same,rate of dead pests (%),Spodoptera litura [3],100%
O=C(c1c(F)cccc1Cl)N1COCN(c2ccc(SC(F)(F)F)cc2F)C1=O [I-221],rate of dead pests (%),Plutella xylostella [4],100%
same,rate of dead pests (%),Spodoptera litura [1],100%
same,rate of dead pests (%),Spodoptera litura [3],100%
Cc1cc(N2COCN(C(=O)c3c(F)cccc3Cl)C2=O)ccc1[S+]([O-])C(F)(F)F (stereo not drawn) [I-249],rate of dead pests (%),Plutella xylostella [2]; [5],95%
same,rate of dead pests (%),Spodoptera litura [3],100%
O=C(c1c(F)cccc1Cl)N1COCN(c2ccc([S+]([O-])C(F)(F)C(F)(F)C(F)(F)F)cc2F)C1=O (stereo not drawn) [I-321],rate of dead pests (%),Spodoptera litura [1],100%
same,rate of dead pests (%),Plutella xylostella [2]; [5],95%
same,rate of dead pests (%),Spodoptera litura [3],100%
COC(=O)N1CN(C(=O)c2c(F)cccc2F)C(=O)N(c2cc(Cl)c(F)c(Cl)c2F)C1 [III-61],rate of dead pests (%),Plutella xylostella [4],100%
same,rate of dead pests (%),Spodoptera litura [1],100%
O=C(OCc1ccccc1)N1CN(C(=O)c2c(F)cccc2F)C(=O)N(c2cc(Cl)c(OC(F)(F)C(F)C(F)(F)F)cc2Cl)C1 (stereo not drawn) [III-70],rate of dead pests (%),Plutella xylostella [4],100%
same,rate of dead pests (%),Spodoptera litura [3],100%
O=C(c1c(F)cccc1F)N1CNCN(c2cc(Cl)c(OC(F)(F)C(F)C(F)(F)F)cc2Cl)C1=O (stereo not drawn) [III-71],rate of dead pests (%),Plutella xylostella [4],100%
same,rate of dead pests (%),Spodoptera litura [3],100%
COC(=O)C(=O)N1CN(C(=O)c2c(F)cccc2F)C(=O)N(c2cc(Cl)c(OC(F)(F)C(F)C(F)(F)F)cc2Cl)C1 (stereo not drawn) [III-72],rate of dead pests (%),Plutella xylostella [4],100%
same,rate of dead pests (%),Spodoptera litura [3],100%
O=C(OCc1ccccc1)N1CN(C(=O)c2c(F)cccc2F)C(=O)N(c2ccc(SC(F)(F)C(F)Cl)cc2F)C1 (stereo not drawn) [III-77],rate of dead pests (%),Plutella xylostella [4],100%
same,rate of dead pests (%),Spodoptera litura [3],100%
COC(=O)C(=O)N1CN(C(=O)c2c(F)cccc2F)C(=O)N(c2ccc(SC(F)(F)C(F)Cl)cc2F)C1 (stereo not drawn) [III-79],rate of dead pests (%),Plutella xylostella [4],100%
same,rate of dead pests (%),Spodoptera litura [1],100%
same,rate of dead pests (%),Spodoptera litura [3],100%
O=C(c1c(F)cccc1F)N1CNCN(c2ccc([S+]([O-])C(F)(F)C(F)Cl)cc2F)C1=O (stereo not drawn) [III-91],rate of dead pests (%),Spodoptera litura [1],95%
same,rate of dead pests (%),Plutella xylostella [2]; [5],100%
same,rate of dead pests (%),Spodoptera litura [3],100%
"CN1CN(C(=O)c2c(F)cccc2F)C(=O)N(c2ccc(S(=O)(=O)C(F)F)cc2F)C1 [III-156, 1-(2,6-difluorobenzoyl)-3-[4-(difluoromethylsulfonyl)-2-fluorophenyl]-5-methyltetrahydro-1,3,5-triazin-2 (1H)-one]",pest or weed control at 100 ppm,Plutella xylostella [4],100%
same,pest or weed control at 100 ppm,Spodoptera litura [3],100%
O=C(c1c(F)cccc1F)N1CN=CN(c2ccc(Oc3ccc(C(F)(F)F)cc3Cl)cc2F)C1=O [V-3],rate of dead pests (%),Plutella xylostella [4],100%
same,rate of dead pests (%),Spodoptera litura [3],100%

# Source: US20050159599A1, “Cyclic compound, process for producing the same, and pest control agent” (priority 2002, published 2005)
